Eleven compounds from patent US20230150974A1 (Foghorn Therapeutics Inc., priority 2020, published 2023) can be followed below.

One assay concerns the target T1, HiBit-BRG1 (Homo sapiens, UniProt P51532).
T1 construct: expressed in transfected cells
As to the kind of experiment: HiBit-BRG1 cell-based degradation assay (Nano-Glo HiBiT Lytic Detection). Conditions: HeLa cells expressing HiBit-BRG1 and LgBit, 24 h; for DC50: read-out: BRG1 HiBit Degradation IC50; for Dmax: read-out: BRG1 HiBit Degradation Maximum (%). In outline:
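HeLa cells stably expressing HiBiT-BRG1 plus LgBit, 5000/well, treated 24 h, then lysed with Nano-Glo HiBiT lytic reagent and luminescence read. % degradation normalised between DMSO (high control) and 2 μM reference BRM/BRG1 degrader (low control).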
(In general: The HiBiT peptide binds its large partner to form an active luciferase.)

Another assay has as its target T2, HiBiT-BRM (Homo sapiens, UniProt P51531).
T2 construct: expressed in transfected cells
The experiment in a line: HiBiT-BRM cell-based degradation assay (Nano-Glo HiBiT Lytic Detection). The note with it: HeLa cells expressing HiBiT-BRM, 24 h; for DC50: read-out: BRM HiBit Degradation IC50. In outline:
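HeLa cells stably expressing HiBiT-tagged BRM were treated for 24 h, then lysed with LgBiT-containing Nano-Glo reagent and luminescence read. % degradation scaled between DMSO (high control) and 2 μM reference BRM/BRG1 degrader (low control).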

A value given as a limit tells only on which side of the number the result lay.

T1 sequence (P51532 whole entry): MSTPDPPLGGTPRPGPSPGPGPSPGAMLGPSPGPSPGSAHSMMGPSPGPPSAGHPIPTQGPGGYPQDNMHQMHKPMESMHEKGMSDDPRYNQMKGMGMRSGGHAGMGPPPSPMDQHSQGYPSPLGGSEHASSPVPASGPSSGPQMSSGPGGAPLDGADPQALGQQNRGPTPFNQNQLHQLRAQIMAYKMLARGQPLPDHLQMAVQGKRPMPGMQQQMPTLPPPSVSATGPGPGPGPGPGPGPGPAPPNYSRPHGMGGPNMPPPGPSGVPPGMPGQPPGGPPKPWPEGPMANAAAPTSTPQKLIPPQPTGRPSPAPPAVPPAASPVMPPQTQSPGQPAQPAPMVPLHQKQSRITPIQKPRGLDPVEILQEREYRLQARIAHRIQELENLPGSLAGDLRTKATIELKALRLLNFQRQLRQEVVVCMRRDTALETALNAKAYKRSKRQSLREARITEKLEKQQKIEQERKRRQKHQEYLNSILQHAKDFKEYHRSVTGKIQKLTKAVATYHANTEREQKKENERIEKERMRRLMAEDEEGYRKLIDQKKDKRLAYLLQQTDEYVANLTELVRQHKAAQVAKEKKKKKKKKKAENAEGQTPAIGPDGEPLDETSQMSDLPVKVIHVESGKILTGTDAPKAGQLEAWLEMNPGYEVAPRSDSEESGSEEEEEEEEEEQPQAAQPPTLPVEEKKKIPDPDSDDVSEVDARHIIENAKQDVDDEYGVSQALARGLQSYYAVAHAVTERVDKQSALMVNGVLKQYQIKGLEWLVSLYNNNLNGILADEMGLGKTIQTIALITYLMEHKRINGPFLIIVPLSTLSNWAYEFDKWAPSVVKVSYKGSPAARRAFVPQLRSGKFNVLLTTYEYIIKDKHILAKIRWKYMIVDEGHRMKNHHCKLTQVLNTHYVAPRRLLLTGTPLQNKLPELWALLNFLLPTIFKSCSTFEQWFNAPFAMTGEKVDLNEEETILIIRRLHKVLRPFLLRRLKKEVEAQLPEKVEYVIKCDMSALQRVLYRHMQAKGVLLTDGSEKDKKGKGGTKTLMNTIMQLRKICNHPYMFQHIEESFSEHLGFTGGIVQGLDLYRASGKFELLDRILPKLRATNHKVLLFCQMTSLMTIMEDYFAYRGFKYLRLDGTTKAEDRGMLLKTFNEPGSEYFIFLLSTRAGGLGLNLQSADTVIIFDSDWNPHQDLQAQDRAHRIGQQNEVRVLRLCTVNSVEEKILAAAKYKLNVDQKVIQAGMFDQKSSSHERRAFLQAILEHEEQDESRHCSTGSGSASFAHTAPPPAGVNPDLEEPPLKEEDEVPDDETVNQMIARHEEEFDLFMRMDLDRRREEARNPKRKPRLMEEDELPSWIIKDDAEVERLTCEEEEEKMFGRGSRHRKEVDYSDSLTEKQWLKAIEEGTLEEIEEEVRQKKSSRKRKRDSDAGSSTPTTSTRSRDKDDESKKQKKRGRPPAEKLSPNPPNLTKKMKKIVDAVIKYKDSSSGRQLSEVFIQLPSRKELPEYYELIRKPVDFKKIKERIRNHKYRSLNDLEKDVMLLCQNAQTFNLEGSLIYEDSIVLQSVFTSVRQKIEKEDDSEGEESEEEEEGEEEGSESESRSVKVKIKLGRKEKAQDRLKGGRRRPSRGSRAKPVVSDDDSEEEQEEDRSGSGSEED
T2 sequence (P51531 whole entry): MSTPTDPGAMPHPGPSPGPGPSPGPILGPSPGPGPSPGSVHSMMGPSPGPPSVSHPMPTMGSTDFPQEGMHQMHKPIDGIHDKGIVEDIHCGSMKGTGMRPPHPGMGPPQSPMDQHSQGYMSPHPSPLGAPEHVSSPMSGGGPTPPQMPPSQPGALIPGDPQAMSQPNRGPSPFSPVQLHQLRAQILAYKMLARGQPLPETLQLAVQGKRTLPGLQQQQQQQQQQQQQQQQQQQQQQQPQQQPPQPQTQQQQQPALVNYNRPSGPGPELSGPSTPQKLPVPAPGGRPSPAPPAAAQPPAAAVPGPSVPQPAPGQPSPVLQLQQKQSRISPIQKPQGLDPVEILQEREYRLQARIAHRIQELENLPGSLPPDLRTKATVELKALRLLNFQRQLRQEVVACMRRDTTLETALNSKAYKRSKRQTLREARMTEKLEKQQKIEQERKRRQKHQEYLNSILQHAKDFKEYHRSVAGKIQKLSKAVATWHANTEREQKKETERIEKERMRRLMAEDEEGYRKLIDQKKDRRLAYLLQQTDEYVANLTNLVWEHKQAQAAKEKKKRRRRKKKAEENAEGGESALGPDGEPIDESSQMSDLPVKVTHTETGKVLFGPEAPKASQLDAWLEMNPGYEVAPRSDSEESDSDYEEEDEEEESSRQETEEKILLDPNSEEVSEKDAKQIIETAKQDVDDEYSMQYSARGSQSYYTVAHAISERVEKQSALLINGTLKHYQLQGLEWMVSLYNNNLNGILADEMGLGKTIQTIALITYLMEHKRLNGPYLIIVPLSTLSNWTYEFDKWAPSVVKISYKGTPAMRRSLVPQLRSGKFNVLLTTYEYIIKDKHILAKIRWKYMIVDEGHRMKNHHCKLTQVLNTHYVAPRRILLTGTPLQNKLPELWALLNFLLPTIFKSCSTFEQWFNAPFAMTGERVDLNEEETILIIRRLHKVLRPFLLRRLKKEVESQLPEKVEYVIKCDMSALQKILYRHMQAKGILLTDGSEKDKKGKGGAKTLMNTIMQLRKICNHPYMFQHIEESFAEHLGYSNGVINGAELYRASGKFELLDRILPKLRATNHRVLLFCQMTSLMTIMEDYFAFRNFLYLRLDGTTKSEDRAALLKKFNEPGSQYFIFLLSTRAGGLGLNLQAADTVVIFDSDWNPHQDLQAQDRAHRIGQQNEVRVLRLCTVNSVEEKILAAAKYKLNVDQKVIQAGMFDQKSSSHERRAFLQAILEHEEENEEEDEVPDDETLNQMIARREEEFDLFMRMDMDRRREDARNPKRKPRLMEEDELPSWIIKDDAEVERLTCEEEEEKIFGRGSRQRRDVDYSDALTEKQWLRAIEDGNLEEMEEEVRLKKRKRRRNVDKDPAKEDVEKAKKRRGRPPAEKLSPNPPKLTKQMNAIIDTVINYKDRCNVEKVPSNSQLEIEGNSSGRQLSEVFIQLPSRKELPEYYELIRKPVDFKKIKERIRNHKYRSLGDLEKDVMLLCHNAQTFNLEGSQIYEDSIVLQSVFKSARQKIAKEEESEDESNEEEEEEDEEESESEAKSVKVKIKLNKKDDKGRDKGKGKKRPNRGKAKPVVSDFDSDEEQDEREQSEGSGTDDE

Consider `Nc1nnc(-c2ccccc2O)cc1OCCc1ccc(CNC(=O)CCCCNc2ccc3c(c2)C(=O)N(C2CCC(=O)NC2=O)C3)cc1` (centres unmarked) [Compound 135, N-[[4-(2-[[3-amino-6-(2-hydroxyphenyl)pyridazin-4-yl]oxy]ethyl)phenyl]methyl]-5-[[2-(2,6-dioxopiperidin-3-yl)-3-oxo-1H-isoindol-5-yl]amino]pentanamide], for which, at HiBit-BRG1, the DC50 is over 1000 nM and the Dmax is under 50%. Moreover, at HiBiT-BRM, the “BRM HiBit Degradation Maximum (%)” value is recorded as “C (“C” indicates maximum degradation <50%)” and the DC50 is over 1000 nM.

`Cc1ncsc1-c1ccc([C@H](C)NC(=O)[C@@H]2C[C@@H](O)CN2C(=O)[C@@H](c2cc(OCCN3CCN(CCC(=O)NCc4ccc(CCOc5cc(-c6ccccc6O)nnc5N)cc4)CC3)no2)C(C)C)cc1` [Compound 175, (2S,4R)-1-[(2R)-2-[3-(2-[4-[2-([[4-(2-[[3-amino-6-(2-hydroxyphenyl)pyridazin-4-yl]oxy]ethyl)phenyl]methyl]carbamoyl)ethyl]piperazin-1-yl]ethoxy)-1,2-oxazol-5-yl]-3-methylbutanoyl]-4-hydroxy-N-[(1S)-1-[4-(4-methyl-1,3-thiazol-5-yl)phenyl]ethyl]pyrrolidine-2-carboxamide]: on HiBit-BRG1, the DC50 was over 100 nM and the Dmax is over 50%. Moreover, on HiBiT-BRM, the “BRM HiBit Degradation Maximum (%)” value is listed as “A (“A” indicates maximum degradation ≥75%)” and the DC50 is over 10 nM.

Regarding `CN(CCNC(=O)COc1cccc2c1C(=O)N(C1CCC(=O)NC1=O)C2=O)CCNC(=O)CN1CCN(c2cc(-c3ccccc3O)nnc2N)CC1` (centres unmarked) [Compound 104, N-(2-[[2-(2-[4-[3-amino-6-(2-hydroxyphenyl)pyridazin-4-yl]piperazin-1-yl]acetamido)ethyl](methyl)amino]ethyl)-2-[[2-(2,6-dioxopiperidin-3-yl)-1,3-dioxo-2,3-dihydro-1H-isoindol-4-yl]oxy]acetamide], on HiBit-BRG1, the DC50 is over 1000 nM and the Dmax was under 50%. Further, on HiBiT-BRM, the “BRM HiBit Degradation Maximum (%)” value was “C (“C” indicates maximum degradation <50%)” and the DC50 was over 1000 nM.

`Cc1ncsc1-c1ccc([C@H](C)NC(=O)[C@@H]2C[C@@H](O)CN2C(=O)[C@@H](c2cc(OCCN3CC4(C3)CN(CCC(=O)NCc3ccc(CCOc5cc(-c6ccccc6O)nnc5N)cc3)C4)no2)C(C)C)cc1` [Compound 192, (2S,4R)-1-[(2R)-2-[3-(2-[6-[2-([[4-(2-[[3-amino-6-(2-hydroxyphenyl)pyridazin-4-yl]oxy]ethyl)phenyl]methyl]carbamoyl)ethyl]-2,6-diazaspiro[3.3]heptan-2-yl]ethoxy)-1,2-oxazol-5-yl]-3-methylbutanoyl]-4-hydroxy-N-[(1S)-1-[4-(4-methyl-1,3-thiazol-5-yl)phenyl]ethyl]pyrrolidine-2-carboxamide]: at HiBit-BRG1, the DC50 was over 1000 nM and the Dmax was over 50%. In addition, at HiBiT-BRM, the “BRM HiBit Degradation Maximum (%)” value is on record as “A (“A” indicates maximum degradation ≥75%)” and the DC50 was over 100 nM.

As to `Nc1nnc(-c2ccccc2O)cc1OCCc1ccc(C(=O)NCCCCCCCCNc2ccc3c(c2)C(=O)N(C2CCC(=O)NC2=O)C3=O)cc1` (centres unmarked) [Compound 64, 4-(2-[[3-amino-6-(2-hydroxyphenyl)pyridazin-4-yl]oxy]ethyl)-N-(8-[[2-(2,6-dioxopiperidin-3-yl)-1,3-dioxoisoindol-5-yl]amino]octyl)benzamide], on HiBit-BRG1, the DC50 was over 1000 nM and the Dmax is under 50%. Moreover, on HiBiT-BRM, the “BRM HiBit Degradation Maximum (%)” value is on record as “C (“C” indicates maximum degradation <50%)” and the DC50 is over 1000 nM.

For the compound `CN(Cc1ccc(CCOc2cc(-c3ccccc3O)nnc2N)cc1)C(=O)CCCCOc1cccc2c1C(=O)N(C1CCC(=O)NC1=O)C2=O` (centres unmarked) [Compound 10, N-(4-(2-((3-amino-6-(2-hydroxyphenyl)pyridazin-4-yl)oxy)ethyl)benzyl)-5-((2-(2,6-dioxopiperidin-3-yl)-1,3-dioxoisoindolin-4-yl)oxy)-N-methylpentanamide], at HiBit-BRG1, the DC50 is over 1000 nM and the Dmax was under 50%. Moreover, at HiBiT-BRM, the “BRM HiBit Degradation Maximum (%)” value was “C (“C” indicates maximum degradation <50%)” and the DC50 is over 1000 nM.

Take `Cc1ncsc1-c1ccc(CNC(=O)[C@@H]2C[C@@H](O)CN2C(=O)[C@@H](NC(=O)CCCCCCCCCC(=O)NCc2ccc(CCOc3cc(-c4ccccc4O)nnc3N)cc2)C(C)(C)C)cc1` [Compound 28, N′-[[4-(2-[[3-amino-6-(2-hydroxyphenyl)pyridazin-4-yl]oxy]ethyl)phenyl]methyl]-N-[(2S)-1-[(2S,4R)-4-hydroxy-2-([[4-(4-methyl-1,3-thiazol-5-yl)phenyl]methyl]carbamoyl)pyrrolidin-1-yl]-3,3-dimethyl-1-oxobutan-2-yl]undecanediamide]: on HiBit-BRG1, the DC50 is over 1000 nM and the Dmax was under 50%. Moreover, on HiBiT-BRM, the “BRM HiBit Degradation Maximum (%)” value was “A (“A” indicates maximum degradation ≥75%)” and the DC50 is over 100 nM.

As to `Cc1ncsc1-c1ccc([C@H](C)NC(=O)[C@@H]2C[C@@H](O)CN2C(=O)[C@@H](NC(=O)CCCCCCCCCCCCCCCC(=O)NCc2ccc(CCOc3cc(-c4ccccc4O)nnc3N)cc2)C(C)(C)C)cc1` [Compound 172, N1-(4-(2-((3-amino-6-(2-hydroxyphenyl)pyridazin-4-yl)oxy)ethyl)benzyl)-N17-((S)-1-((2S,4R)-4-hydroxy-2-(((S)-1-(4-(4-methylthiazoi-5-yl)phenyl)ethyl)carbamoyl)pyrrolidin-1-yl)-3,3-dimethyl-1-oxobutan-2-yl)heptadecanediamide], on HiBit-BRG1, the DC50 is over 100 nM and the Dmax is over 50%. In addition, on HiBiT-BRM, the “BRM HiBit Degradation Maximum (%)” value is reported as “A (“A” indicates maximum degradation ≥75%)” and the DC50 was over 10 nM.

Turning to `Cc1ncsc1-c1ccc(CNC(=O)[C@@H]2C[C@@H](O)CN2C(=O)[C@@H](NC(=O)CCCCCCCNC(=O)CN2CCN(c3cc(-c4ccccc4O)nnc3N)CC2)C(C)(C)C)cc1` [Compound 94, (2S,4R)-1-((S)-2-(8-(2-(4-(3-amino-6-(2-hydroxyphenyl)pyridazin-4-yl)piperazin-1-yl)acetamido)octanamido)-3,3-dimethylbutanoyl)-4-hydroxy-N-(4-(4-methylthiazol-5-yl)benzyl)pyrrolidine-2-carboxamide], at HiBit-BRG1, the DC50 is over 1000 nM and the Dmax is under 50%. For the same compound, at HiBiT-BRM, the “BRM HiBit Degradation Maximum (%)” value is reported as “A (“A” indicates maximum degradation ≥75%)” and the DC50 is over 1000 nM.

On to `Cc1ncsc1-c1ccc([C@H](C)NC(=O)[C@@H]2C[C@@H](O)CN2C(=O)[C@@H](c2cc(OCCN3CC(C(=O)NCc4ccc(CCOc5cc(-c6ccccc6O)nnc5N)cc4)C3)no2)C(C)C)cc1` [Compound 178, (2S,4R)-1-((R)-2-(3-(2-(3-((4-(2-((3-amino-6-(2-hydroxyphenyl)pyridazin-4-yl)oxy)ethyl)benzyl)carbamoyl)azetidin-1-yl)ethoxy)isoxazol-5-yl)-3-methylbutanoyl)-4-hydroxy-N-((S)-1-(4-(4-methylthiazol-5-yl)phenyl)ethyl)pyrrolidine-2-carboxamide], for which, at HiBit-BRG1, the DC50 was over 100 nM and the Dmax was over 75%. In addition, at HiBiT-BRM, the “BRM HiBit Degradation Maximum (%)” value is on record as “A (“A” indicates maximum degradation ≥75%)” and the DC50 is over 100 nM.

As for `Nc1nnc(-c2ccccc2O)cc1OCCc1ccc(C(=O)NCCCCCCNc2ccc3c(c2)C(=O)N(C2CCC(=O)NC2=O)C3=O)cc1` (centres unmarked) [Compound 46, 4-(2-[[3-amino-6-(2-hydroxyphenyl)pyridazin-4-yl]oxy]ethyl)-N-(6-[[2-(2,6-dioxopiperidin-3-yl)-1,3-dioxoisoindol-5-yl]amino]hexyl)benzamide], on HiBit-BRG1, the DC50 is over 1000 nM and the Dmax was under 50%. In addition, at HiBiT-BRM, the “BRM HiBit Degradation Maximum (%)” value is “C (“C” indicates maximum degradation <50%)” and the DC50 is over 1000 nM.
